Measured values from PMC11873635 (Acta Pharmaceutica Sinica. B, 2024).

Assays:
human SMS2 = molecular target: T1, human SMS2 (Homo sapiens, UniProt Q8NHU3); assay: purified SMS enzyme inhibitory assay in vitro; assay type: biochemical; conditions: for Selectivity ratio: IC50, SMS1/IC50, SMS2; for LLE: pIC50, SMS2 – ClogP; for inhibition at 1 µM: read-out: SMS2 Inhibition @ 1 μmol/L (%)
T1 sequence (Q8NHU3 1-365): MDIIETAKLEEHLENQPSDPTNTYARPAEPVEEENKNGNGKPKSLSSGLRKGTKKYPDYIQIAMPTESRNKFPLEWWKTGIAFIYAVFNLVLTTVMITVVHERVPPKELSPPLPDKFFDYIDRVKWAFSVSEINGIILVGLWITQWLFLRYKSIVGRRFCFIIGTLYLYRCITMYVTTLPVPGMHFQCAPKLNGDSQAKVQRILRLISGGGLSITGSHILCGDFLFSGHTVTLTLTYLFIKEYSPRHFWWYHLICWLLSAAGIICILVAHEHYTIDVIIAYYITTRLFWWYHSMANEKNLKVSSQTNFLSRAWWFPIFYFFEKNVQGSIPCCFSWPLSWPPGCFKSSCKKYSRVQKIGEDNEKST

human SMS1 = molecular target: T2, human SMS1 (Homo sapiens, UniProt Q86VZ5); assay: purified SMS enzyme inhibitory assay in vitro; assay type: biochemical; conditions: for inhibition at 100 µM: read-out: SMS1 Inhibition @ 100 μmol/L (%)
T2 sequence (Q86VZ5 1-413): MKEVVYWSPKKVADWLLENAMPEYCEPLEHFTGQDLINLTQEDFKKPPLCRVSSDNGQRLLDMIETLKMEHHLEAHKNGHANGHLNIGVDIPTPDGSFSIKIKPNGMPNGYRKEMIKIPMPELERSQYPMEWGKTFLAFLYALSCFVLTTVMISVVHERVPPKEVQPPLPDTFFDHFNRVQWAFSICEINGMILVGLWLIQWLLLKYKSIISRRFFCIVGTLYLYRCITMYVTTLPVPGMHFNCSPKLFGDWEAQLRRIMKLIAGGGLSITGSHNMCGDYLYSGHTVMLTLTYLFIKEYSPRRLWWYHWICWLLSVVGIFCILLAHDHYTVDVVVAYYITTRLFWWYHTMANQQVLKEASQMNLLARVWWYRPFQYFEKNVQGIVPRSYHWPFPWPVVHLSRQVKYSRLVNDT

| IC50 (human SMS2) [µM] | Selectivity ratio (human SMS2) | LLE (human SMS2) | inhibition at 1 µM (human SMS2) [%] | IC50 (human SMS1) [µM] | inhibition at 100 µM (human SMS1) [%] | SMILES |
| --- | --- | --- | --- | --- | --- | --- |
|  |  |  | 86 |  | 39 | O=C(Nc1cccnc1)c1sccc1OCc1cccc2ccccc12 [9a] |
|  |  |  | 36 |  | 42 | O=C(Nc1cccnc1)c1sccc1OCc1ccc2ccccc2c1 [9b] |
|  |  |  | 79 |  | 5 | O=C(Nc1cccnc1)c1sccc1OCc1c2ccccc2cc2ccccc12 [9c] |
|  |  |  | 45 |  | 21 | O=C(Nc1cccnc1)c1sccc1OCc1cccc2cccnc12 [9d] |
|  |  |  | -11 |  | 67 | CCCCCCCCOc1ccsc1C(=O)Nc1cccnc1 [9e] |
| 0.307 |  | 2.90 | 64 |  | 56 | O=C(Nc1cccnc1)c1sccc1OCc1ccccc1Cl [14a] |
| 0.199 |  | 3.02 | 68 |  | 60 | O=C(Nc1cccnc1)c1sccc1OCc1cccc(Cl)c1 [14b] |
| 38.8 |  | 0.75 | 26 |  | 52 | O=C(Nc1cccnc1)c1sccc1OCc1ccc(Cl)cc1 [14c] |
|  |  |  | 79 | 102 | 53 | O=C(Nc1cccnc1)c1sccc1OCc1cc(F)ccc1Cl [14d] |
| 0.07 | 2295 | 4.04 | 82 | 160 | 33 | COc1ccccc1COc1ccsc1C(=O)Nc1cccnc1 [14e] |
| 0.078 | 1004 | 3.67 | 83 | 78 | 56 | CCOc1ccccc1COc1ccsc1C(=O)Nc1cccnc1 [14f] |
| 0.103 | 477 | 3.18 | 78 | 49 | 74 | CCCOc1ccccc1COc1ccsc1C(=O)Nc1cccnc1 [14g] |
| 0.065 | 313 | 3.14 | 85 | 20 | 81 | CCCCOc1ccccc1COc1ccsc1C(=O)Nc1cccnc1 [14h] |
| 0.074 | 142 | 2.62 | 86 | 10 | 88 | CCCCCOc1ccccc1COc1ccsc1C(=O)Nc1cccnc1 [14i] |
| 0.067 | 85 | 2.52 | 88 | 6 | 93 | CCCCCCOc1ccccc1COc1ccsc1C(=O)Nc1cccnc1 [14j] |
| 0.029 | 459 | 2.37 | 91 | 13 | 90 | CCCCCCCOc1ccccc1COc1ccsc1C(=O)Nc1cccnc1 [14k] |
| 0.035 | 360 | 1.58 | 91 | 13 | 86 | CCCCCCCCCOc1ccccc1COc1ccsc1C(=O)Nc1cccnc1 [14m] |
| 0.031 | 409 | 1.39 | 92 | 13 | 87 | CCCCCCCCCCOc1ccccc1COc1ccsc1C(=O)Nc1cccnc1 [14n] |
| 0.029 | 445 | 0.98 | 95 | 13 | 90 | CCCCCCCCCCCOc1ccccc1COc1ccsc1C(=O)Nc1cccnc1 [14o] |
| 0.034 | 540 | 0.64 | 93 | 18 | 81 | CCCCCCCCCCCCOc1ccccc1COc1ccsc1C(=O)Nc1cccnc1 [14p] |
| 0.015 | 649 | 1.83 | 98 | 10 | 92 | CCCCCCCCOc1c(Cl)cccc1COc1ccsc1C(=O)Nc1cccnc1 [14q] |
| 0.111 | 70 | 1.01 | 91 | 8 | 85 | CCCCCCCCOc1ccc(Cl)cc1COc1ccsc1C(=O)Nc1cccnc1 [14r] |

The remaining lines, values behind:

| SMILES | IC50 (human SMS2) [µM] | Selectivity ratio (human SMS2) | LLE (human SMS2) | inhibition at 1 µM (human SMS2) [%] | IC50 (human SMS1) [µM] | inhibition at 100 µM (human SMS1) [%] |
| --- | --- | --- | --- | --- | --- | --- |
| O=C(Nc1cccnc1)c1sccc1OCc1ccccc1 [5a] | 0.4 | 547 | 3.33 | 66 | 219 | 20 |
| O=C(Nc1cccnc1)c1ncccc1OCc1ccccc1 [5b] |  |  |  |  |  | -18 |
| Cc1cc(OCc2ccccc2)c(C(=O)Nc2cccnc2)s1 [5c] |  |  |  | 34 |  | -14 |
| Cc1nc(OCc2ccccc2)c(C(=O)Nc2cccnc2)s1 [5d] |  |  |  |  |  | 10 |
| O=C(Nc1cccnc1)c1sc([N+](=O)[O-])cc1OCc1ccccc1 [5e] |  |  |  |  |  | -4 |
| O=C(Nc1cccnc1)c1scc(Br)c1OCc1ccccc1 [5f] |  |  |  | 42 |  | 14 |
| O=C(Nc1cccnc1F)c1sccc1OCc1ccccc1 [7a] | 1.79 |  | 2.31 | 41 |  | 53 |
| O=C(Nc1cnccc1Cl)c1sccc1OCc1ccccc1 [7b] |  |  |  | 7 |  | -39 |
| O=C(Nc1cncc(F)c1)c1sccc1OCc1ccccc1 [7c] |  |  |  | 56 |  | 52 |
| O=C(Nc1ccc(F)nc1)c1sccc1OCc1ccccc1 [7d] |  |  |  | 12 |  | 57 |
| Cc1ncccc1NC(=O)c1sccc1OCc1ccccc1 [7e] |  |  |  | 3 |  | -20 |
| Cc1ccncc1NC(=O)c1sccc1OCc1ccccc1 [7f] |  |  |  | -4 |  | -17 |
| Cc1cncc(NC(=O)c2sccc2OCc2ccccc2)c1 [7g] |  |  |  | 12 |  | 28 |
| Cc1ccc(NC(=O)c2sccc2OCc2ccccc2)cn1 [7h] |  |  |  | -3 |  | 22 |
| O=C(Nc1cccnn1)c1sccc1OCc1ccccc1 [7i] |  |  |  | 25 |  | 22 |
| O=C(Nc1ccnnc1)c1sccc1OCc1ccccc1 [7j] |  |  |  | -16 |  | 5 |
| O=C(Nc1ccccc1)c1sccc1OCc1ccccc1 [7k] |  |  |  | 3 |  |  |
| CN(C(=O)c1sccc1OCc1ccccc1)c1cccnc1 [compound 6] |  |  |  | 28 |  | 20 |
| O=C(Nc1cccnc1)c1sccc1OS(=O)(=O)c1ccccc1 [compound 10] |  |  |  | -3 |  |  |
